Test results taken from paper PMC4857387, “The Arabidopsis NPF3 protein is a GA transporter” (Nature Communications, 2016).

Experiments:
NPF4.1 (AIT3) = target: T1, NPF4.1 (AIT3) (Arabidopsis thaliana, UniProt Q9LSF0); test: competition of GA4 uptake in Xenopus oocytes, LC-MS; assay type: cell-based; conditions: 300 uM GA4 with 5 mM JA-Ile
T1 sequence (Q9LSF0 1-515): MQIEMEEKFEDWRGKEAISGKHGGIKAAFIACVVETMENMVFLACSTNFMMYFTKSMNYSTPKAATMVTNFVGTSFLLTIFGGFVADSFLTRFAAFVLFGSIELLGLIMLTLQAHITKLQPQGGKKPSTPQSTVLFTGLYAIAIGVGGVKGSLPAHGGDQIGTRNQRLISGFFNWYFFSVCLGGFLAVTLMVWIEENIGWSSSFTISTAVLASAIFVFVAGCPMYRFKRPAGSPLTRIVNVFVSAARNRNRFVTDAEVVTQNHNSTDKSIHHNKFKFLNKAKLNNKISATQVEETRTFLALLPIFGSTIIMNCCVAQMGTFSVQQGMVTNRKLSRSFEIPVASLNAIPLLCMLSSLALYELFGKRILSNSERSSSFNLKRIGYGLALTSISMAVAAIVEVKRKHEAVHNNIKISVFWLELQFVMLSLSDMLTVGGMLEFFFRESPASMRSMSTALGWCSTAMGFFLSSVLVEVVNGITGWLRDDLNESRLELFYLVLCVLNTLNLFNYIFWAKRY

[1] = substrate: C=C1C[C@]23C[C@H]1CC[C@H]2[C@@]12CC[C@H](O)[C@@](C)(C(=O)O1)[C@H]2[C@@H]3C(=O)O; test: uptake into Xenopus oocytes, LC-MS; assay type: cell-based, Arabidopsis thaliana; conditions: pH 5, 60 min incubation, diffusion into non-injected oocytes subtracted, judged by authors a likely overestimation

Question: How did the “inhibition of GA4 uptake at 5 mM” value (NPF4.1 (AIT3)) turn out when `CC/C=C\C[C@H]1C(=O)CC[C@@H]1CC(=O)N[C@H](C(=O)O)[C@@H](C)CC` [JA-Ile] was run?
Answer: Its value is “JA-Ile strongly inhibited GA4 uptake”.

B1: NPF3 (NPF3.1, AtNPF3.1) (Arabidopsis thaliana) (protein)
chain: MEEQSKNKISEEEKQLHGRPNRPKGGLITMPFIFANEICEKLAVVGFHANMISYLTTQLHLPLTKAANTLTNFAGTSSLTPLLGAFIADSFAGRFWTITFASIIYQIGMTLLTISAIIPTLRPPPCKGEEVCVVADTAQLSILYVALLLGALGSGGIRPCVVAFGADQFDESDPNQTTKTWNYFNWYYFCMGAAVLLAVTVLVWIQDNVGWGLGLGIPTVAMFLSVIAFVGGFQLYRHLVPAGSPFTRLIQVGVAAFRKRKLRMVSDPSLLYFNDEIDAPISLGGKLTHTKHMSFLDKAAIVTEEDNLKPGQIPNHWRLSTVHRVEELKSVIRMGPIGASGILLITAYAQQGTFSLQQAKTMNRHLTNSFQIPAGSMSVFTTVAMLTTIIFYDRVFVKVARKFTGLERGITFLHRMGIGFVISIIATLVAGFVEVKRKSVAIEHGLLDKPHTIVPISFLWLIPQYGLHGVAEAFMSIGHLEFFYDQAPESMRSTATALFWMAISIGNYVSTLLVTLVHKFSAKPDGSNWLPDNNLNRGRLEYFYWLITVLQAVNLVYYLWCAKIYTYKPVQVHHSKEDSSPVKEELQLSNRSLVDE
notes: putative 12 transmembrane domains
Question: With B1 as the molecule, how does the Km [1] read?
Answer: The Km was 500 µM.
